Data reported in the supplement of paper PMC10307832.

Assays:
Experiment in all cases: relative viability (nuclei count vs DMSO), 5 days (fraction); higher = more cells survive
[1] = compound: CC(O)(CS(=O)(=O)c1ccc(F)cc1)C(=O)Nc1ccc(C#N)c(C(F)(F)F)c1 [Bicalutamide] + CC(C)C[C@H](NC(=O)[C@H](Cc1ccccc1)NC(=O)c1cnccn1)B(O)O [Bortezomib] (partner 0.002 µM)
Outline: (§1)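 Relative viability divides the nuclei count in treated wells by that in vehicle wells. Lung cancer cell lines were seeded in 1536-well plates, dosed by pin tool the next day, and fixed and stained after 5 days in one step with final 0.05% Triton X-100, 1% formaldehyde and 1 ug/ml Hoechst. Dosing was a single drug or a fixed anchor-drug dose plus five library-drug doses (not always all listed) in √10 steps, and values are medians of duplicate plates imaged at 4×.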

[2] = compound: C(C(=O)C(=O)O)Br [Bromopyruvate] + Cc1nc(Nc2ncc(C(=O)Nc3c(C)cccc3Cl)s2)cc(N2CCN(CCO)CC2)n1 [Dasatinib] (partner 0.075 µM)
Outline: as §1

[3] = compound: CC(O)(CS(=O)(=O)c1ccc(F)cc1)C(=O)Nc1ccc(C#N)c(C(F)(F)F)c1 [Bicalutamide] + Cc1cc(Nc2cc(N3CCN(C)CC3)nc(Sc3ccc(NC(=O)C4CC4)cc3)n2)n[nH]1 [Tozasertib] (partner 0.1 µM)
Outline: as §1

[4] = compound: CC(O)(CS(=O)(=O)c1ccc(F)cc1)C(=O)Nc1ccc(C#N)c(C(F)(F)F)c1 [Bicalutamide] + Nc1nc2[nH]cc(CCc3ccc(C(=O)N[C@@H](CCC(=O)O)C(=O)O)cc3)c2c(=O)[nH]1 [Pemetrexed] (partner 0.2 µM)
Outline: as §1

Cell Line	relative viability ([1]; first compound 0.08 µM)	relative viability ([1]; first compound 0.253 µM)	relative viability ([1]; first compound 0.8 µM)	relative viability ([1]; first compound 2.53 µM)	relative viability ([2]; first compound 1 µM)	relative viability ([2]; first compound 3.162 µM)	relative viability ([2]; first compound 10 µM)	relative viability ([2]; first compound 31.62 µM)	relative viability ([2]; first compound 100 µM)	relative viability ([3]; first compound 0.08 µM)	relative viability ([3]; first compound 0.253 µM)	relative viability ([3]; first compound 0.8 µM)	relative viability ([3]; first compound 2.53 µM)	relative viability ([4]; first compound 0.08 µM)	relative viability ([4]; first compound 0.253 µM)	relative viability ([4]; first compound 0.8 µM)	relative viability ([4]; first compound 2.53 µM)
IA-LM	0.819	0.86	0.966	0.837	–	–	–	–	–	–	–	–	–	–	–	–	–
LC-2-ad	1.07	1.05	0.997	1.01	0.765	0.671	0.634	0.54	0.437	0.465	0.429	0.552	0.505	0.268	0.256	0.275	0.267
LCLC-97TM1	0.726	0.543	0.635	0.461	0.74	0.898	0.835	0.763	0.957	0.212	0.186	0.296	0.231	0.169	0.173	0.203	0.181
LCLC-103H	1.1	1.08	1.15	1	0.479	0.494	0.413	0.447	0.54	0.546	0.412	0.468	0.411	0.446	0.408	0.469	0.462
LK-2	–	–	–	–	0.284	0.328	0.322	0.336	0.317	0.19	0.178	0.152	0.179	0.233	0.273	0.379	0.303
LOU-NH91	0.53	0.493	0.441	0.523	0.592	0.535	0.61	0.58	0.558	0.696	0.516	0.798	0.662	0.429	0.379	0.39	0.378
LU99A	0.995	0.964	1.24	0.846	0.515	0.568	0.575	0.552	0.534	0.279	0.238	0.297	0.226	0.19	0.163	0.206	0.183
LXF-289	0.98	0.908	1.02	0.963	0.278	0.214	0.262	0.27	0.183	0.206	0.182	0.198	0.157	0.929	0.815	0.916	0.949
NCI-H23	0.964	1.03	1.49	0.786	0.721	0.794	1.1	0.775	1.07	0.371	0.322	0.375	0.374	0.52	0.528	0.854	0.578
NCI-H358	–	–	–	–	0.197	0.149	0.143	0.171	0.167	0.136	0.108	0.108	0.105	0.174	0.17	0.218	0.176
NCI-H522	–	–	–	–	0.856	0.781	0.816	0.892	1.01	0.552	0.627	0.597	0.543	0.923	0.854	1.22	0.979
NCI-H727	0.884	0.709	0.968	0.626	0.474	0.301	0.29	0.401	0.314	0.615	0.619	0.591	0.603	–	–	–	–
NCI-H1299	0.974	1.05	0.969	1.04	–	–	–	–	–	–	–	–	–	–	–	–	–
NCI-H1395	–	–	–	–	0.412	0.386	0.457	0.423	0.396	0.829	0.736	0.827	0.696	0.89	0.766	0.965	0.709
NCI-H1563	0.973	0.775	0.885	0.767	0.487	0.47	0.563	0.402	0.426	–	–	–	–	0.871	0.69	0.919	0.697
NCI-H1623	–	–	–	–	0.574	0.487	0.672	0.597	0.576	–	0.445	0.471	0.463	–	–	–	–
NCI-H1648	–	–	–	–	–	–	–	–	–	–	0.496	0.602	0.358	–	–	0.745	0.774
NCI-H1703	0.374	0.427	0.317	0.204	–	–	–	–	–	–	–	–	–	–	–	–	–
NCI-H1792	0.983	0.957	0.983	1.07	0.81	0.892	0.91	–	0.723	–	–	–	–	0.825	0.658	1.16	0.831
NCI-H1793	–	–	–	–	0.385	0.402	0.415	0.407	0.386	0.36	0.257	0.313	0.309	0.914	–	1.07	0.907
NCI-H1944	–	–	–	–	0.235	0.255	0.213	0.196	0.205	0.246	0.232	0.256	0.257	0.562	0.599	0.681	0.611
NCI-H2170	–	–	–	–	0.553	0.509	0.59	0.627	0.635	0.728	0.696	0.716	0.739	0.251	0.262	0.281	0.25
NCI-H2342	–	–	–	–	0.307	0.292	0.319	0.285	0.319	0.496	0.564	0.5	0.456	0.764	0.761	0.89	0.751
SK-MES-1	–	–	–	–	0.424	0.332	0.345	0.339	0.417	1.08	0.853	0.867	0.66	1.04	0.867	0.981	0.832
SW 900	–	–	–	–	0.498	0.552	0.533	0.516	0.592	0.651	0.556	0.592	0.542	0.444	0.47	0.562	0.467
